Bridge positions count the residues as written; N and C are the ends. Square brackets hold non-standard residues; d marks the D form. Peptide text beside a SMILES is read from it. Dap = NC[C@H](N)C(=O)O
Tests used:
IL-8 = test: In vitro chemotaxis, inhibition v IL-8; format: cell-based, human; design: concentration or dose not given beside the values
Description: To determine whether an agent inhibits a chemokine-induced activity, such as macrophage recruitment, varying amounts of the agent are mixed with cells in the presence of a known chemoattractant. For example, a range of known concentrations of an agent, e.g., a chemokine peptide, is incubated with a defined number (e.g., 10^4-10^6) of human THP-1 monocyte cells in individual wells of the top compartment of a trans-well plate. Chemokine, at a concentration known to cause significant migration of THP-1 cells in the trans-well migration assay, is placed in the lower compartment of a trans-well plate. Cells are then incubated at 37° C. for a period sufficient to allow migration, e.g., 4 hours. After incubation, the cells are gently removed from the top of the filter with a pipette, 20 μl of 20 mM EDTA in simple PBS is added into each top well, and incubated for 20 minutes at 4° C. The filter is carefully flushed with media using a gentle flow, and removed. A standard curve consisting of a two-fold dilution series of THP-1 cells (in 29 μl) is placed to accurately quantify the number of cells that have migrated. Migrated cells are stained with 3 μl of MTT stock dye solution which is added directly into each well (5 mg/ml in RPMI-1640 without phenol red) (Sigma Chemical Co., St. Louis, Mo., USA) and incubated at 37° C. for 4 hours. The media is carefully aspirated from each well, and the converted dye is solubilized by 20 μl of DMSO. Absorbance of converted dye is measured at a wavelength of 595 nm using an ELISA plate reader. The number of migrated cells in each well is then determined by interpolation of the standard curve (see also Imai et al., J. Biol. Chem., 272:15036, 1997). Any method suitable for counting cells can be used, for example, counting with a hemocytometer, incubation of the cells with MTT (see above), or FACS analysis. A negative control assay is also performed, using TGFβ or another non-chemokine chemoattractant (e.g., IL1β or TNFα). To assess whether the agent is cytotoxic, the same concentrations of agent are incubated with THP-1 cells. Agents which 1) are not cytotoxic at levels which inhibit migration, 2) are ineffective at inhibiting the negative control-induced migration, and 3) reduce or inhibit chemokine-induced THP-1 migration, are agents which fall within the scope of the invention.

MCP-1 = test: In vitro chemotaxis (trans-well migration) v MCP-1; format: cell-based, human
Outline: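 Trans-well migration toward IL-8 or MCP-1 placed below, with agent added to THP-1 cells (10^4-10^6) in the top well and incubation at 37° C (e.g. 4 hours). MTT absorbance at 595 nm, interpolated on a cell standard curve, gives migrated cell numbers; TGFβ-type negative control and cytotoxicity check included.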

Compound	EC50 (MCP-1) [nM]	v IL-8 inhibition (%) (IL-8)
CC[C@H](C)[C@@H]1NC(=O)[C@@H](Cc2c[nH]c3ccccc23)NC(=O)[C@H](CCCCN)NC(=O)[C@H](CCC(N)=O)NC(=O)[C@H](CCCCN)NC(=O)[C@@H]2CCCN2C(=O)[C@H](CC(=O)O)NC(=O)[C@H](CC(C)C)NC(=O)[C@@H](NC(C)=O)CSSC[C@@H](C(N)=O)NC(=O)[C@H](CCC(N)=O)NC1=O [Example 26, Ac-c(Cys-Leu-Asp-Pro-Lys-Gln-Lys-D-Trp-Ile-Gln-Cys)-NH2] (Ac-CLDPKQK[dW]IQC-NH2; disulfide 1-11)	20	94.9
CC[C@H](C)[C@@H]1NC(=O)[C@H](Cc2c[nH]c3ccccc23)NC(=O)[C@H](CCCCN)NC(=O)[C@H](CCC(N)=O)NC(=O)[C@@H](CCCCN)NC(=O)[C@@H]2CCCN2C(=O)[C@H](CC(=O)O)NC(=O)[C@H](CC(C)C)NC(=O)[C@@H](NC(C)=O)CSSC[C@@H](C(N)=O)NC(=O)[C@H](CCC(N)=O)NC1=O [Example 29, Ac-c(Cys-Leu-Asp-Pro-D-Lys-Gln-Lys-Trp-Ile-Gln-Cys)-NH2] (Ac-CLDP[dK]QKWIQC-NH2; disulfide 1-11)	30	92.0
CC[C@H](C)[C@@H]1NC(=O)[C@H](Cc2c[nH]c3ccccc23)NC(=O)[C@H](CCCCN)NC(=O)[C@H](CCC(N)=O)NC(=O)[C@H](CCCCN)NC(=O)[C@@H]2CCCN2C(=O)[C@H](CC(=O)O)NC(=O)[C@@H](CC(C)C)NC(=O)[C@@H](NC(C)=O)CSSC[C@@H](C(N)=O)NC(=O)[C@H](CCC(N)=O)NC1=O [Example 32, Ac-c(Cys-D-Leu-Asp-Pro-Lys-Gln-Lys-Trp-Ile-Gln-Cys)-NH2] (Ac-C[dL]DPKQKWIQC-NH2; disulfide 1-11)	> 1000	8.7
CC[C@H](C)[C@@H]1NC(=O)[C@H](Cc2c[nH]c3ccccc23)NC(=O)[C@H](CCCCN)NC(=O)[C@H](CCC(N)=O)NC(=O)[C@H](CCCCN)NC(=O)[C@@H]2CCCN2C(=O)[C@H](CC(=O)O)NC(=O)[C@H](CC(C)C)NC(=O)[C@@H](N)CSSC[C@H](C(N)=O)NC(=O)[C@H](CCC(N)=O)NC1=O [Example 36, c(Cys-Leu-Asp-Pro-Lys-Gln-Lys-Trp-Ile-Gln-D-Cys)-NH2] (H-CLDPKQKWIQ[dC]-NH2; disulfide 1-11)	600	21.8

Continued by falling EC50 (MCP-1), values first:

EC50 (MCP-1) [nM]	Compound	v IL-8 inhibition (%) (IL-8)
250	CC[C@H](C)[C@@H]1NC(=O)[C@H](Cc2c[nH]c3ccccc23)NC(=O)[C@H](CCCCN)NC(=O)[C@H](CCC(N)=O)NC(=O)[C@H](CCCCN)NC(=O)[C@@H]2CCCN2C(=O)[C@H](CC(=O)O)NC(=O)[C@H](CC(C)C)NC(=O)[C@@H](NC(=O)[C@H](CCCCN)NC(C)=O)CSSC[C@@H](C(N)=O)NC(=O)[C@H](CCC(N)=O)NC1=O [Example 34, Ac-Lys-c(Cys-Leu-Asp-Pro-Lys-Gln-Lys-Trp-Ile-Gln-Cys)-NH2] (Ac-KCLDPKQKWIQC-NH2; disulfide 2-12)	75.7
50	CC[C@H](C)[C@@H]1NC(=O)[C@H](Cc2c[nH]c3ccccc23)NC(=O)[C@H](CCCCN)NC(=O)[C@H](CCC(N)=O)NC(=O)[C@H](CCCCN)NC(=O)[C@@H]2CCCN2C(=O)[C@@H](CC(=O)O)NC(=O)[C@H](CC(C)C)NC(=O)[C@@H](NC(C)=O)CSSC[C@@H](C(N)=O)NC(=O)[C@H](CCC(N)=O)NC1=O [Example 31, Ac-c(Cys-Leu-D-Asp-Pro-Lys-Gln-Lys-Trp-Ile-Gln-Cys)-NH2] (Ac-CL[dD]PKQKWIQC-NH2; disulfide 1-11)	95.8
50	CC[C@H](C)[C@@H]1NC(=O)[C@H](Cc2c[nH]c3ccccc23)NC(=O)[C@H](CCCCN)NC(=O)[C@H](CCC(N)=O)NC(=O)[C@H](CCCCN)NC(=O)[C@@H]2CCCN2C(=O)[C@H](CC(=O)O)NC(=O)[C@H](CC(C)C)NC(=O)[C@H](N)CSSC[C@@H](C(=O)N[C@@H](CN)C(N)=O)NC(=O)[C@H](CCC(N)=O)NC1=O [Example 35, c(D-Cys-Leu-Asp-Pro-Lys-Gln-Lys-Trp-Ile-Gln-Cys)-Dap-NH2] (H-[dC]LDPKQKWIQC[Dap]-NH2; disulfide 1-11)	91.9

Reference: patent publication US20110038885A1, “CHEMOKINE ANALOGS” (priority 2007, published 2011)
